Legend:
tankyrase 1/2 = test: Measurement of cellular inhibition of tankyrase (Axin2 level, Luminex based assay, DLD1 cells); details: 24 hours, increase of Axin2 level, read-out: EC50 tankyrase 1/2 (cell assay)
Procedure: Measurement of Cellular Inhibition of Tankyrase
Since Tankyrases have been described to modulate cellular level of Axin2 (Huang et al., 2009; Nature) the increase of Axin2 level is used as read-out for determination of cellular inhibition of Tankyrases in a Luminex based assay.
Cells of the colon carcinoma cell line DLD1 are plated in 96 well plates with 1.5×10^4 cells per well. Next day, cells are treated with a serial-dilution of test compound in seven steps as triplicates with a final DMSO concentration of 0.3%. After 24 hours, cells are lysed in lysis buffer (20 mM Tris/HCl pH 8.0, 150 mM NaCl, 1% NP40, 10% Glycerol) and lysates are cleared by centrifugation through a 96 well filter plate (0.65 μm). Axin2 protein is isolated from cell lysates by incubation with a monoclonal anti-Axin2 antibody (R&D Systems #MAB6078) that is bound to fluorescent carboxybeads. Then, bound Axin2 is specifically detected with a polyclonal anti-Axin2 antibody (Cell Signaling #2151) and an appropriate PE-fluorescent secondary antibody. The amount of isolated Axin2 protein is determined in a Luminex^200 machine (Luminex Corporation) according to the manufacturer's instruction by counting 100 events per well. […] For analysis, the obtained data were normalized against the untreated solvent control and fitted for determination of the EC50 values using the Assay Explorer software (Accelrys).

[1] = biological target: T1, GST-tagged Tankyrase-1 (1023-1327 aa) (Homo sapiens, UniProt O95271); test: Tankyrase 1 autoparsylation assay (HTRF enzyme assay); assay type: biochemical
T1 construct: GST-tagged Tankyrase-1 (1023-1327 aa)
Procedure: (§1) The autoparsylation assay was run in two steps: the enzymatic reaction in which GST-tagged Tankyrase-1, resp Tankyrase-2 transferred biotinylated ADP-ribose to itself from biotinylated NAD as co-substrate and the detection reaction where a time resolved FRET between cryptate labelled anti-GST bound to the GST tag of the enzyme and Xlent® labelled-streptavidin bound the biotin-parsylation residue was analysed. The autoparsylation activity was detectable directly via the increase in HTRF signal.
(§2) The autoparsylation assay was performed as 384-well HTRF® (Cisbio, Codolet, France) assay format in Greiner low volume nb 384-well microtiter plates and was used for high throughput screen. 250 nM GST-tagged Tankyrase-1 (1023-1327 aa), respectively about 250 nM GST-tagged Tankyrase-2 (873-1166 aa) and 5 μM bio-NAD (Biolog, Life science Inst., Bremen, Germany) as co-substrate were incubated in a total volume of 5 μl (50 mM HEPES, 4 mM Mg-chloride, 0.05% Pluronic F-68, 1.4 mM DTT, 0.5% DMSO, pH 7.7) in the absence or presence of the test compound (10 dilution concentrations) for 90 min at 30° C. The reaction was stopped by the addition of 1 μl 50 mM EDTA solution. 2 μl of the detection solution (1.6 μM SA-Xlent® (Cisbio, Codolet, France), 7.4 nM Anti-GST-K® (Eu-labelled anti-GST, Cisbio, Codolet, France) in 50 mM HEPES, 800 mM KF, 0.1% BSA, 20 mM EDTA, 0.1% CHAPS, pH 7.0) were added. After 1 h incubation at room temperature the HTRF was measured with an Envision multimode reader (Perkin Elmer LAS Germany GmbH) at excitation wavelength 340 nm (laser mode) and emission wavelengths 615 nm and 665 nm. The ratio of the emission signals was determined. The full value used was the inhibitor-free reaction. The pharmacological zero value used was XAV-939 (Tocris) in a final concentration of 5 μM. The inhibitory values (IC50) were determined using either the program Symyx Assay Explorer® or Condosseo® from GeneData.

[2] = biological target: T2, GST-tagged Tankyrase-2 (873-1166 aa) (Homo sapiens, UniProt Q9H2K2); test: Tankyrase 2 autoparsylation assay (HTRF enzyme assay); assay type: biochemical
T2 construct: GST-tagged Tankyrase-2 (873-1166 aa)
Procedure: as §1, §2

[3] = biological target: T3, GST-tagged Tnks-1 (1023-1327 aa) (Homo sapiens, UniProt O95271); test: TNKS 1 activity ELISA (autoparsylation assay); assay type: biochemical; details: read-out: IC50 tankyrase 1 (ELISA assay)
T3 construct: GST-tagged Tnks-1 (1023-1327 aa, prepared in-house); made in house
Procedure: (§3) Biochemical Activity Testing of TNKS 1 and 2: Activity ELISA (Autoparsylation Assay)
(§4) For analysis of autoparsylation activity of TNKS 1 and 2 an activity ELISA was performed: In the first step GST tagged TNKS was captured on a Glutathione coated plate. Then the activity assay with biotinylated NAD was performed in the absence/presence of the compounds. During the enzymatic reaction GST tagged TNKS transferred biotinylated ADP-ribose to itself from biotinylated NAD as co-substrate. For the detection streptavidin-HRP conjugate was added that bound to the biotinylated TNKS and was thereby captured to the plates. The amount of biotinylated resp autoparsylated TNKS was detected with a luminescence substrate for HRP. The level of the luminescence signal correlated directly with the amount of autoparsylated TNKS and therefore with activity of TNKS.
(§5) The activity ELISA was performed in 384 well Glutathione coated microtiter plates (Express capture Glutathione coated plate, Biocat, Heidelberg, Germany). The plates were pre-equilibrated with PBS. Then the plates were incubated with 50 μl 20 ng/well GST-tagged Tnks-1 (1023-1327 aa, prepared in-house), respectively GST-tagged Tnks-2 (873-1166 aa, prepared in-house) in assay buffer (50 mM HEPES, 4 mM Mg-chloride, 0.05% Pluronic F-68, 2 mM DTT, pH 7.7) overnight at 4° C. The plates were washed 3 times with PBS-Tween-20. The wells were blocked by incubation at room temperature for 20 minutes with 50 μl blocking buffer (PBS, 0.05% Tween-20, 0.5% BSA). Afterwards the plates were washed 3 times with PBS-Tween-20. The enzymatic reaction was performed in 50 μl reaction solution (50 mM HEPES, 4 mM Mg-chloride, 0.05% Pluronic F-68, 1.4 mM DTT, 0.5% DMSO, pH 7.7) with 10 μM bio-NAD (Biolog, Life science Inst., Bremen, Germany) as co-substrate in the absence or presence of the test compound (10 dilution concentrations) for 1 hour at 30° C. The reaction was stopped by 3 times washing with PBS-Tween-20. For the detection 50 μl of 20 ng/μl Streptavidin, HRP conjugate (MoBiTec, Göttingen, Germany) in PBS/0.05% Tween-20/0.01% BSA were added and the plates were incubated for 30 minutes at room temperature. After three times washing with PBS-Tween-20 50 μl of SuperSignal ELISA Femto Maximum sensitivity substrate solution (ThermoFisherScientific (Pierce), Bonn, Germany) were added. Following a 1 minute incubation at room temperature luminescence signals were measured with an Envision multimode reader (Perkin Elmer LAS Germany GmbH) at 700 nm. The full value used was the inhibitor-free reaction. The pharmacological zero value used was XAV-939 (Tocris) in a final concentration of 5 μM. The inhibitory values (IC50) were determined using either the program Symyx Assay Explorer® or Condosseo® from GeneData.

[4] = biological target: T4, GST-tagged Tnks-2 (873-1166 aa) (Homo sapiens, UniProt Q9H2K2); test: TNKS 2 activity ELISA (autoparsylation assay); assay type: biochemical; details: read-out: IC50 tankyrase 2 (ELISA assay)
T4 construct: GST-tagged Tnks-2 (873-1166 aa, prepared in-house); made in house
Procedure: as §3, §4, §5

His-tagged Parp-1 = biological target: T5, His-tagged Parp-1 (Homo sapiens, UniProt P09874); test: PARP-1 autoparsylation assay (HTRF); assay type: biochemical; details: read-out: IC50 PARP1
T5 construct: purchased Enzo Life Sciences GmbH, Lörrach, Germany
Procedure: Biochemical Activity Testing of PARP-1: Autoparsylation Assay
as §1, with “His-tagged Parp-1” for “GST-tagged Tankyrase-1, resp Tankyrase-2”, “ADP-ribose/ADP-ribose” for “ADP-ribose”, “NAD/NAD” for “NAD”, “anti-His antibody” for “anti-GST”, “His” for “GST”
The autoparsylation assay was performed as 384-well HTRF® (Cisbio, Codolet, France) assay format in Greiner low volume nb 384-well microtiter plates. 35 nM His-tagged Parp-1 (human, recombinant, Enzo Life Sciences GmbH, Lörrach, Germany) and a mixture of 125 nM bio-NAD (Biolog, Life science Inst., Bremen, Germany) and 800 nM NAD as co-substrate were incubated in a total volume of 6 μl (100 mM Tris/HCl, 4 mM Mg-chloride, 0.01% IGEPAL® CA630, 1 mM DTT, 0.5% DMSO, pH 8, 13 ng/μl activated DNA (BPS Bioscience, San Diego, US)) in the absence or presence of the test compound (10 dilution concentrations) for 150 min at 23° C. The reaction was stopped by the addition of 4 μl of the Stop/detection solution (70 nM SA-Xlent® (Cisbio, Codolet, France), 2.5 nM Anti-His-K® (Eu-labelled anti-His, Cisbio, Codolet, France) in 50 mM HEPES, 400 mM KF, 0.1% BSA, 20 mM EDTA, pH 7.0). After 1 h incubation at room temperature the HTRF was measured with an Envision multimode reader (Perkin Elmer LAS Germany GmbH) at excitation wavelength 340 nm (laser mode) and emission wavelengths 615 nm and 665 nm. The ratio of the emission signals was determined. The full value used was the inhibitor-free reaction. The pharmacological zero value used was Olaparib (LClabs, Woburn, US) in a final concentration of 1 μM. The inhibitory values (IC50) were determined using either the program Symyx Assay Explorer® or Condosseo® from GeneData.

DLD-1-cancer cells = details: cited from earlier work

T4 sequence (Q9H2K2 873-1166): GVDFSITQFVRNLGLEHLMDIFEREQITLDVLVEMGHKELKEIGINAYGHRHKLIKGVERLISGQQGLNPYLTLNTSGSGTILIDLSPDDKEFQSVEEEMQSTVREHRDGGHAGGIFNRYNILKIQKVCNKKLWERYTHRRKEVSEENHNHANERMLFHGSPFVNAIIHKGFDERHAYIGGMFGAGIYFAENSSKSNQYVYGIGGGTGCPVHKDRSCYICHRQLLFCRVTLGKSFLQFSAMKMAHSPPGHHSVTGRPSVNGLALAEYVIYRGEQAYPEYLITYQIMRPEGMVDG
T2 sequence (Q9H2K2 873-1166): as above
T1 sequence (O95271 1023-1327): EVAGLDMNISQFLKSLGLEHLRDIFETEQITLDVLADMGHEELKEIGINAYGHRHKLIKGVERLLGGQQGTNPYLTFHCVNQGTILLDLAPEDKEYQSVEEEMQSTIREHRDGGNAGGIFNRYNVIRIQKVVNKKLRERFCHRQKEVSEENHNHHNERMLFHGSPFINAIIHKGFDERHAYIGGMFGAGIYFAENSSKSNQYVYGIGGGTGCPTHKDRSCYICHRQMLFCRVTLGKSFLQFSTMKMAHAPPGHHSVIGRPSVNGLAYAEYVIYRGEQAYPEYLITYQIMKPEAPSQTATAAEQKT
T3 sequence (O95271 1023-1327): as above
T5 sequence (P09874 whole entry): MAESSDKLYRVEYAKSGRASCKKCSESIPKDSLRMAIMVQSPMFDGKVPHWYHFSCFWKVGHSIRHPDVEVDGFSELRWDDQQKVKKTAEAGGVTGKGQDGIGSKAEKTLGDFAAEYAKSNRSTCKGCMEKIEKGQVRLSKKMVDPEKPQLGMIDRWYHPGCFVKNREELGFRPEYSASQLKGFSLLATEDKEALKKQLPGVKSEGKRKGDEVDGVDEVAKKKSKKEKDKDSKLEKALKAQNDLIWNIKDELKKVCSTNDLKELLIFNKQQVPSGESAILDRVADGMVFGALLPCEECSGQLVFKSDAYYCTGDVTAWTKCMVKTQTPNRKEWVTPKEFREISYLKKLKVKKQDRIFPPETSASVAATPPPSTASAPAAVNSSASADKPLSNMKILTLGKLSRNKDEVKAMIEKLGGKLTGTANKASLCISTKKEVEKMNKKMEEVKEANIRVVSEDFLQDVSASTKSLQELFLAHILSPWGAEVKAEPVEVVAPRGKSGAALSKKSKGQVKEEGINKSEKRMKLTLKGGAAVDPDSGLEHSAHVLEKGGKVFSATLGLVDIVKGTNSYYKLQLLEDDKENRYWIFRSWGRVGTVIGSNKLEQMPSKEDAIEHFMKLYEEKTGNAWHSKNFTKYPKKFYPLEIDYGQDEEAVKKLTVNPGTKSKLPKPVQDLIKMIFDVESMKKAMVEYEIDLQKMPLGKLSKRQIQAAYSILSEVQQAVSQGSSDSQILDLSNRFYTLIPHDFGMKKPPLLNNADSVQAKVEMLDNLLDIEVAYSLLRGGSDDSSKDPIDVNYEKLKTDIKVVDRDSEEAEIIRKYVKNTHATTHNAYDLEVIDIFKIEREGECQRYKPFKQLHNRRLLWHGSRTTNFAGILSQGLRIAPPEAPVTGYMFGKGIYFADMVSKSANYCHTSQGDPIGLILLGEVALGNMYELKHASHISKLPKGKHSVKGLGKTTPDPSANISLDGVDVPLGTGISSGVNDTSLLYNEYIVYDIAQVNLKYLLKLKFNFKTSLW

`O=c1[nH]c(N2CCC(C(F)(F)F)CC2)nc2c1CCCC2` [Compound A10, 2-(4-Trifluoromethylpiperidin-1-yl)-5,6,7,8-tetrahydro-3H-quinazolin-4-one] showed an EC50 (tankyrase 1/2) of 3 to 50 µM, an IC50 [1] of 0.3 to 3 µM and an IC50 [2] of 0.3 to 3 µM. The IC50 [3] was under 0.3 µM and the IC50 [4] was under 0.3 µM.

Molecule `O=c1[nH]c(N2CCN(c3cccc(Cl)c3)CC2)nc2c1CCCC2` [Compound A11, 2-[4-(3-Chlorophenyl)piperazin-1-yl]-5,6,7,8-tetrahydro-3H-quinazolin-4-one] has an EC50 (tankyrase 1/2) of 0.3 to 3 µM, an IC50 [1] of 0.3 to 3 µM and an IC50 [2] of 0.3 to 3 µM. It also gave an IC50 [3] of under 0.3 µM and an IC50 [4] of under 0.3 µM.

`NC(=O)c1ccccc1N1CCN(c2nc3c(c(=O)[nH]2)CCCC3)CC1` [Compound A34, 2-[4-(4-oxo-5,6,7,8-tetrahydro-3H-quinazolin-2-yl)piperazin-1-yl]benzamide] showed an IC50 [1] of under 0.3 µM, an IC50 [2] of 0.3 to 3 µM and an IC50 [3] of under 0.3 µM. For the same molecule, the IC50 [4] was under 0.3 µM and the IC50 (His-tagged Parp-1) was under 0.3 µM.

In the case of `COc1ccc(N2CCN(c3nc4c(c(=O)[nH]3)CCCC4)CC2)c(OC)c1` [Compound A37, 2-[4-(2,4-dimethoxyphenyl)piperazin-1-yl]-5,6,7,8-tetrahydro-3H-quinazolin-4-one], the EC50 (tankyrase 1/2) is reported as 0.3 to 3 µM, the IC50 [1] is reported as 0.3 to 3 µM and the IC50 [2] is reported as 0.3 to 3 µM. For the same molecule, the IC50 [3] was under 0.3 µM and the IC50 [4] was under 0.3 µM.

Molecule `O=c1[nH]c(N2CCN(c3ccc(F)cc3Cl)CC2)nc2c1CCCC2` [Compound A39, 2-[4-(2-chloro-4-fluoro-phenyl)piperazin-1-yl]-5,6,7,8-tetrahydro-3H-quinazolin-4-one] has an EC50 (tankyrase 1/2) of 0.3 to 3 µM, an IC50 [1] of 0.3 to 3 µM and an IC50 [2] of 0.3 to 3 µM. It also gave an IC50 [3] of under 0.3 µM and an IC50 [4] of under 0.3 µM.

Work on `COc1ccc(N2CCN(c3nc4c(c(=O)[nH]3)CCCC4)CC2)cn1` [Compound A51, 2-[4-(6-methoxy-3-pyridyl)piperazin-1-yl]-5,6,7,8-tetrahydro-3H-quinazolin-4-one] yielded an EC50 (tankyrase 1/2) of 0.3 to 3 µM, an IC50 [1] of 0.3 to 3 µM and an IC50 [2] of 0.3 to 3 µM. For the same molecule, the IC50 [3] was 0.3 to 3 µM and the IC50 [4] was 0.3 to 3 µM.

In the case of `COc1ccccc1C1CCN(c2nc3c(c(=O)[nH]2)CCCC3)CC1` [Compound A54, 2-[4-(2-methoxy-phenyl)-piperidin-1-yl]-5,6,7,8-tetrahydro-3H-quinazolin-4-one], the EC50 (tankyrase 1/2) is reported as 0.3 to 3 µM, the IC50 [1] is reported as under 0.3 µM and the IC50 [2] is reported as 0.3 to 3 µM. For the same molecule, the IC50 [3] was under 0.3 µM and the IC50 [4] was under 0.3 µM.

Work on `COc1ccc(C2CCN(c3nc4c(c(=O)[nH]3)CCCC4)CC2)cc1` [Compound A55, 2-[4-(4-methoxy-phenyl)-piperidin-1-yl]-5,6,7,8-tetrahydro-3H-quinazolin-4-one] yielded an EC50 (tankyrase 1/2) of 3 to 50 µM, an IC50 [1] of under 0.3 µM and an IC50 [2] of 0.3 to 3 µM. The IC50 [3] was under 0.3 µM and the IC50 [4] was under 0.3 µM.

In the case of `O=c1[nH]c(N2CCN(c3ccccc3C(F)(F)F)CC2)nc2c1CCCC2` [Compound A56, 2-[4-(2-trifluoromethyl-phenyl)-piperazin-1-yl]-5,6,7,8-tetrahydro-3H-quinazolin-4-one], the EC50 (tankyrase 1/2) is reported as 0.3 to 3 µM, the IC50 [1] is reported as under 0.3 µM and the IC50 [2] is reported as 0.3 to 3 µM. The IC50 [3] was under 0.3 µM and the IC50 [4] was under 0.3 µM.

In the case of `Oc1nc(-c2ccc(C(F)(F)F)cc2)nc2c1CSCC2` [XAV939], the “growth of DLD-1-cancer cells” value (DLD-1-cancer cells) is given as “inhibits growth”.
